Experimental data from patent US20230085307A1, “PYRIDAZINONE COMPOUND AND HERBICIDE” (NISSAN CHEMICAL CORPORATION, priority 2019, published 2023).

Assays:
[1] = test system: southern crabgrass; test: Test Example 5: herbicidal effect by foliage application, plastic box (Table 20, symbol F); type: in vivo, southern crabgrass (Digitaria ciliaris); conditions: evaluated three weeks after application; for Herbicidal effect by foliage application, F: southern crabgrass: amount of applied herbicide 320 g/ha
In short: (§1)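 Plants were sown into sterilized diluvial soil under about 1.5 cm cover and kept in a greenhouse at 25° C. to 30° C. Fourteen days on, foliage received an even spray of the diluted emulsion. Herbicidal or crop effect was judged three weeks afterwards.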

[2] = test system: Chinese sprangletop; test: Test Example 3: herbicidal effect by foliage application, Wagner pot (Table 18, symbol D); type: in vivo, chinese sprangletop (Leptochloa chinensis); conditions: for herbicidal effect on Chinese sprangletop (D): 320 g/ha
In short: (§2)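 Plants were sown in alluvial soil held under 0.1–0.5 cm standing water and grown 14 days in a greenhouse at 25–30 °C. An emulsifiable formulation, water-diluted to the set dose, was then sprayed onto the foliage, and effects were scored three weeks later using previously defined criteria.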

[3] = test system: Italian ryegrass; test: Test Example 5: herbicidal effect by foliage application, plastic box (Table 20, symbol K); type: in vivo, Italian ryegrass (Lolium multiflorum); conditions: evaluated three weeks after application; for Herbicidal effect by foliage application, K: Italian ryegrass: amount of applied herbicide 320 g/ha
In short: as §1

[4] = test system: green foxtail; test: Test Example 5: herbicidal effect by foliage application, plastic box (Table 20, symbol G); type: in vivo, green foxtail (Setaria viridis); conditions: evaluated three weeks after application; for Herbicidal effect by foliage application, G: green foxtail: amount of applied herbicide 320 g/ha
In short: as §1

[5] = test system: velvetleaf; test: Test Example 5: herbicidal effect by foliage application, plastic box (Table 20, symbol M); type: in vivo, velvetleaf (Abutilon theophrasti); conditions: evaluated three weeks after application; for Herbicidal effect by foliage application, M: velvetleaf: amount of applied herbicide 320 g/ha
In short: as §1

[6] = test system: windgrass; test: Test Example 5: herbicidal effect by foliage application, plastic box (Table 20, symbol L); type: in vivo, windgrass (Apera spica-venti); conditions: evaluated three weeks after application; for Herbicidal effect by foliage application, L: windgrass: amount of applied herbicide 320 g/ha
In short: as §1

[7] = test system: rice flat sedge; test: Test Example 3: herbicidal effect by foliage application, Wagner pot (Table 18, symbol E); type: in vivo, rice flat sedge (Cyperus iria); conditions: for herbicidal effect on rice flat sedge (E): 320 g/ha
In short: as §2

[8] = test system: barnyard grass; test: Test Example 3: herbicidal effect by foliage application, Wagner pot (Table 18, symbol H); type: in vivo, barnyard grass (Echinochloa crus-galli); conditions: for herbicidal effect on barnyard grass (H): 320 g/ha
In short: as §2

[9] = test system: persian speedwell; test: Test Example 5: herbicidal effect by foliage application, plastic box (Table 20, symbol R); type: in vivo, Persian speedwell (Veronica persica); conditions: evaluated three weeks after application; for Herbicidal effect by foliage application, R: persian speedwell: amount of applied herbicide 320 g/ha
In short: as §1

[10] = test system: barnyard grass; test: Test Example 5: herbicidal effect by foliage application, plastic box (Table 20, symbol H); type: in vivo, barnyard grass (Echinochloa crus-galli); conditions: evaluated three weeks after application; for Herbicidal effect by foliage application, H: barnyard grass: amount of applied herbicide 320 g/ha
In short: as §1

[11] = test system: lambsquarters; test: Test Example 5: herbicidal effect by foliage application, plastic box (Table 20, symbol O); type: in vivo, lambsquarters (Chenopodium album); conditions: evaluated three weeks after application; for Herbicidal effect by foliage application, O: lambsquarters: amount of applied herbicide 320 g/ha
In short: as §1

[12] = test system: wild oat; test: Test Example 5: herbicidal effect by foliage application, plastic box (Table 20, symbol I); type: in vivo, wild oat (Avena fatua); conditions: evaluated three weeks after application; for Herbicidal effect by foliage application, I: wild oat: amount of applied herbicide 320 g/ha
In short: as §1

[13] = test system: chickweed; test: Test Example 5: herbicidal effect by foliage application, plastic box (Table 20, symbol P); type: in vivo, common chickweed (Stellaria media); conditions: evaluated three weeks after application; for Herbicidal effect by foliage application, P: chickweed: amount of applied herbicide 320 g/ha
In short: as §1

[14] = test system: blackgrass; test: Test Example 5: herbicidal effect by foliage application, plastic box (Table 20, symbol J); type: in vivo, blackgrass (Alopecurus myosuroides); conditions: evaluated three weeks after application; for Herbicidal effect by foliage application, J: blackgrass: amount of applied herbicide 320 g/ha
In short: as §1

[15] = test system: redroot pigweed; test: Test Example 5: herbicidal effect by foliage application, plastic box (Table 20, symbol N); type: in vivo, redroot pigweed (Amaranthus retroflexus); conditions: evaluated three weeks after application; for Herbicidal effect by foliage application, N: redroot pigweed: amount of applied herbicide 320 g/ha
In short: as §1

[16] = foliage application, AAH 320 g/ha
[17] = amount of applied herbicide 320 g/ha
[18] = foliage application after 14-day growth
[19] = 320 g/ha, foliage application after 14-day growth

SMILES | Herbicidal effect by foliage application, F: southern crabgrass [1, 18] | herbicidal effect on Chinese sprangletop (D) [2] | Herbicidal effect by foliage application, K: Italian ryegrass [3, 18] | Herbicidal effect by foliage application, G: green foxtail [4, 18] | Herbicidal effect by foliage application, M: velvetleaf [5, 18] | Herbicidal effect by foliage application, L: windgrass [6, 18] | herbicidal effect on rice flat sedge (E) [7] | herbicidal effect on barnyard grass (H) [8] | Herbicidal effect by foliage application, R: persian speedwell [9, 18] | Herbicidal effect by foliage application, H: barnyard grass [10, 18] | Herbicidal effect by foliage application, O: lambsquarters [11, 18] | Herbicidal effect by foliage application, I: wild oat [12, 18] | Herbicidal effect by foliage application, P: chickweed [13, 18] | Herbicidal effect by foliage application, J: blackgrass [14, 18] | Herbicidal effect by foliage application, N: redroot pigweed [15, 18] | also measured
CC(=O)COc1c(C)nn(C)c(=O)c1-c1c(-c2ccc(OC(F)F)cc2)sc2ccc(F)cc12 [2-304] |  |  |  |  |  |  |  |  |  |  |  |  |  |  |  | F: southern crabgrass, herbicidal effect (criteria 0-5) [1, 16]: 0 (Herbicidal rate of 5% or less (almost no effect)); herbicidal effect on D: Chinese sprangletop [2, 17]: 3 (Herbicidal rate of 40% or more and less than 70%); K: Italian ryegrass, herbicidal effect (criteria 0-5) [3, 16]: 0 (Herbicidal rate of 5% or less (almost no effect)); G: green foxtail, herbicidal effect (criteria 0-5) [4, 16]: 0 (Herbicidal rate of 5% or less (almost no effect)); M: velvetleaf, herbicidal effect (criteria 0-5) [5, 16]: 0 (Herbicidal rate of 5% or less (almost no effect)); L: windgrass, herbicidal effect (criteria 0-5) [6, 16]: 0 (Herbicidal rate of 5% or less (almost no effect)); herbicidal effect on E: rice flat sedge [7, 17]: 3 (Herbicidal rate of 40% or more and less than 70%); herbicidal effect on H: barnyard grass [8, 17]: 3 (Herbicidal rate of 40% or more and less than 70%); R: persian speedwell, herbicidal effect (criteria 0-5) [9, 16]: 5 (Herbicidal rate of 90% or more (almost completely withered)); H: barnyard grass, herbicidal effect (criteria 0-5) [10, 16]: 0 (Herbicidal rate of 5% or less (almost no effect)); O: lambsquarters, herbicidal effect (criteria 0-5) [11, 16]: 3 (Herbicidal rate of 40% or more and less than 70%); I: wild oat, herbicidal effect (criteria 0-5) [12, 16]: 0 (Herbicidal rate of 5% or less (almost no effect)); P: chickweed, herbicidal effect (criteria 0-5) [13, 16]: 5 (Herbicidal rate of 90% or more (almost completely withered)); J: blackgrass, herbicidal effect (criteria 0-5) [14, 16]: 0 (Herbicidal rate of 5% or less (almost no effect)); N: redroot pigweed, herbicidal effect (criteria 0-5) [15, 16]: 5 (Herbicidal rate of 90% or more (almost completely withered))
CCSc1cccc(-c2sc3c(C)cccc3c2-c2c(O)c(C)nn(C)c2=O)c1 [4-122] | 3 (Herbicidal rate of 40% or more and less than 70%) | 0 (Herbicidal rate of 5% or less (almost no effect)) | 4 (Herbicidal rate of 70% or more and less than 90%) | 1 (Herbicidal rate of 5% or more and less than 20%) | 4 (Herbicidal rate of 70% or more and less than 90%) | 4 (Herbicidal rate of 70% or more and less than 90%) | 4 (Herbicidal rate of 70% or more and less than 90%) | 5 (Herbicidal rate of 90% or more (almost completely withered)) | 4 (Herbicidal rate of 70% or more and less than 90%) | 1 (Herbicidal rate of 5% or more and less than 20%) | 4 (Herbicidal rate of 70% or more and less than 90%) | 0 (Herbicidal rate of 5% or less (almost no effect)) | 5 (Herbicidal rate of 90% or more (almost completely withered)) | 1 (Herbicidal rate of 5% or more and less than 20%) | 4 (Herbicidal rate of 70% or more and less than 90%) | 
Cc1nn(C)c(=O)c(-c2c(-c3ccc(C#N)cc3)sc3cc(Cl)c(Cl)cc23)c1O [5-049] | 0 (Herbicidal rate of 5% or less (almost no effect)) | 0 (Herbicidal rate of 5% or less (almost no effect)) | 0 (Herbicidal rate of 5% or less (almost no effect)) | 2 (Herbicidal rate of 20% or more and less than 40%) | 1 (Herbicidal rate of 5% or more and less than 20%) | 3 (Herbicidal rate of 40% or more and less than 70%) | 0 (Herbicidal rate of 5% or less (almost no effect)) | 3 (Herbicidal rate of 40% or more and less than 70%) | 0 (Herbicidal rate of 5% or less (almost no effect)) | 0 (Herbicidal rate of 5% or less (almost no effect)) | 4 (Herbicidal rate of 70% or more and less than 90%) | 0 (Herbicidal rate of 5% or less (almost no effect)) | 0 (Herbicidal rate of 5% or less (almost no effect)) | 0 (Herbicidal rate of 5% or less (almost no effect)) | 5 (Herbicidal rate of 90% or more (almost completely withered)) | 
Cc1nn(C)c(=O)c(-c2c(-c3ccc(C(C)C)cc3)sc3cc(F)c(F)cc23)c1O [5-005] | 0 (Herbicidal rate of 5% or less (almost no effect)) | 5 (Herbicidal rate of 90% or more (almost completely withered)) | 0 (Herbicidal rate of 5% or less (almost no effect)) | 0 (Herbicidal rate of 5% or less (almost no effect)) | 3 (Herbicidal rate of 40% or more and less than 70%) | 0 (Herbicidal rate of 5% or less (almost no effect)) | 4 (Herbicidal rate of 70% or more and less than 90%) | 3 (Herbicidal rate of 40% or more and less than 70%) | 4 (Herbicidal rate of 70% or more and less than 90%) | 0 (Herbicidal rate of 5% or less (almost no effect)) | 0 (Herbicidal rate of 5% or less (almost no effect)) | 0 (Herbicidal rate of 5% or less (almost no effect)) | 5 (Herbicidal rate of 90% or more (almost completely withered)) | 0 (Herbicidal rate of 5% or less (almost no effect)) | 3 (Herbicidal rate of 40% or more and less than 70%) | 
CCCC(=O)Oc1c(C)nn(C)c(=O)c1-c1c(-c2ccccc2CC)sc2c(Cl)cccc12 [4-063] |  | 3 (Herbicidal rate of 40% or more and less than 70%) |  |  |  |  | 4 (Herbicidal rate of 70% or more and less than 90%) | 5 (Herbicidal rate of 90% or more (almost completely withered)) |  |  |  |  |  |  |  | herbicidal effect on F: southern crabgrass (evaluation grade 0-5) [1, 19]: 0 (Herbicidal rate of 5% or less (almost no effect)); herbicidal effect on K: Italian ryegrass (evaluation grade 0-5) [3, 19]: 0 (Herbicidal rate of 5% or less (almost no effect)); herbicidal effect on G: green foxtail (evaluation grade 0-5) [4, 19]: 0 (Herbicidal rate of 5% or less (almost no effect)); herbicidal effect on M: velvetleaf (evaluation grade 0-5) [5, 19]: 0 (Herbicidal rate of 5% or less (almost no effect)); herbicidal effect on L: windgrass (evaluation grade 0-5) [6, 19]: 0 (Herbicidal rate of 5% or less (almost no effect)); herbicidal effect on R: persian speedwell (evaluation grade 0-5) [9, 19]: 0 (Herbicidal rate of 5% or less (almost no effect)); herbicidal effect on H: barnyard grass (evaluation grade 0-5) [10, 19]: 0 (Herbicidal rate of 5% or less (almost no effect)); herbicidal effect on O: lambsquarters (evaluation grade 0-5) [11, 19]: 1 (Herbicidal rate of 5% or more and less than 20%); herbicidal effect on I: wild oat (evaluation grade 0-5) [12, 19]: 0 (Herbicidal rate of 5% or less (almost no effect)); herbicidal effect on P: chickweed (evaluation grade 0-5) [13, 19]: 0 (Herbicidal rate of 5% or less (almost no effect)); herbicidal effect on J: blackgrass (evaluation grade 0-5) [14, 19]: 0 (Herbicidal rate of 5% or less (almost no effect)); herbicidal effect on N: redroot pigweed (evaluation grade 0-5) [15, 19]: 3 (Herbicidal rate of 40% or more and less than 70%)
